According to US10835416B2, “Ocular insert apparatus and methods” (ForSight Vision5, Inc., priority 2011, dated 2020):

What was measured:
eye of a subject = assay: IOP over time in a patient with a bimatoprost-loaded insert on one eye (FIG. 23); assay type: in vivo, human; conditions: right eye (OD) with ring insert, silicone matrix (NuSil Med 4810) with about 2% bimatoprost, decreased from about 22 mm Hg, to about 28 days post-op
Source text: (§1) Test devices comprising a ring shaped retention structure comprising a nylon suture and a support structure 120 having inclined surfaces were placed in an eye of a subject. The support structure comprised a therapeutic agent contained in a silicone matrix. The silicone matrix comprised inclusions of the therapeutic agent as described herein, and the therapeutic agent comprised a prostaglandin. The silicone matrix comprised NuSil Med 4810 and the amount prostaglandin comprised about 2% bimatoprost. The cross-sectional diameter of the support comprising the matrix was about 1 mm and extended about 90 degrees around the ring shaped suture with the suture extending there through. The amount of therapeutic agent within the matrix can be increased with additional studies and embodiments, for example to within a range from about 5-10% prostaglandin such as bimatoprost. […] The ring was inserted in the right eye (OD) and the TOP decreased from about 22 mm Hg to within a range from about 15 to 18 mm Hg to about 28 days post-op. The TOP of the untreated left eye (OS) remained substantially constant and within a range from about 19 mm Hg to about 22 mm Hg. The therapeutic agent comprised a prostaglandin, bimatoprost, and the estimated amount released per day started at approximately 22 ug/day and decreased to approximately 1 ug/day. […]

[1] = Estimated amount of bimatoprost released per day from the Experiment 6 test device; assay type: physicochemical; conditions: insert with about 2% bimatoprost in silicone matrix
Source text: as §1

[2] = Rate of release of bimatoprost from insert with silicone matrix (FIGS. 26A, 26B); assay type: physicochemical
Protocol: FIGS. 26A and 26B show rates of release of prostaglandin comprising bimatoprost from an insert comprising a silicone matrix. The estimated rate of release for a matrix having 7% prostaglandin comprising bimatoprost loaded on the insert is above 3.5 ug per day for at least about 90 days. The rate of release of prostaglandin comprising bimatoprost was measured from a matrix comprising medical grade silicone having an approximate durometer of 10 A. The configuration of the insert and matrix is described in Table 3 with reverence to mono v.1 which comprises a 1 mm diameter silicone matrix extending along a 75 degree arc length. The surface area was 47.9 mm^2 and the volume 10.4 mm^3. For the 7% loading the amount of drug loaded on the device was about 700 μg. The rate of release of about 0.9 ug/day for 90 days was measured and the rate of release for 120 days was estimated. The therapeutic agent was released for 70 days above 1 ug per day. Based on Table 3, the matrix can be configured to release additional amounts therapeutic agent. For example, the rate of release can be increased by more than 4× by extending the matrix 360 degrees around the suture.

[3] = Wash time in 70% isopropanol bath and rate of release from silicone matrices (FIG. 27); assay type: physicochemical; conditions: silicone ring with 7% bimatoprost; for elution rate: initial
Protocol: The experiments were conducted with silicone rings having 7% prostaglandin comprising bimatoprost and medical grade silicone having a rated durometer of Shore A 10 without drug. The elution rate for the unwashed matrix (“0 wash”) was about 35 ug per day and decreased substantially. […] By day 14 the rate of release was substantially the same for each of the unwashed matrix, the matrix washed for 15 minutes, matrix washed for 60 minutes, and the matrix washed for 180 minutes.

eye of a test subject = assay: IOP of a test subject wearing successive inserts (FIG. 28); assay type: in vivo, human
Protocol: The initial studies on the test subject appear to indicate it may be helpful to provide greater amounts of therapeutic agent than would be provided based on eye drop estimates. The TOP was measured and amounts of therapeutic agent estimated. […] The twin insert was placed in a solution when the patient insert was placed in the eye. The measured rate of release of the twin placed in solution was used to determine the rate of release of the insert placed in the eye. The data of this small study indicate that in at least some instances for some patients, the target threshold amount of therapeutic agent released continuously from an insert placed in the eye may be greater than the amount provided to tissue by drops. It was observed that providing amounts of therapeutic agent greater than the estimated amount provided by drops may provide an improved result. It was observed that after about sixty days the TOP had increased to about 19.5 mm Hg was close to the control eye, and the determined rate of release was about 1.2 ug of prostaglandin comprising bimatoprost per day. The insert was replaced with a second insert providing a rate of release of about 1.6 to 2.5 ug per day based on twin measurements, and the TOP decreased to within a range from about 17 to 18 mm Hg. The second insert was replaced with a third insert providing over 3.8 to 4 ug per day based on twin measurements, and the TOP decreased further to within a range from 14.5 to 16 mm Hg.

[4] = Rate of release measured on twin insert placed in solution (FIG. 28); assay type: physicochemical; conditions: for rate of release: based on twin measurements
Protocol: The initial studies on the test subject appear to indicate it may be helpful to provide greater amounts of therapeutic agent than would be provided based on eye drop estimates. The TOP was measured and amounts of therapeutic agent estimated. […] The twin insert was placed in a solution when the patient insert was placed in the eye. The measured rate of release of the twin placed in solution was used to determine the rate of release of the insert placed in the eye.

[5] = 60 minute wash in 70% isopropanol
[6] = 180 minute wash in 70% isopropanol

- estimated amount released per day, end ([1]; decreased to): about 1 ug/day
- estimated amount released per day, start ([1]; started at): about 22 ug/day
- estimated rate of release ([2]; matrix having 7% bimatoprost loaded on an insert, for at least about 120 days): above 3 ug per day
- estimated rate of release ([2]; matrix having 7% bimatoprost loaded on the insert, for at least about 90 days): above 3.5 ug per day
- rate of release ([2]; mono v.1: 1 mm diameter 10 A silicone matrix, 75 degree arc, 7% loading (about 700 μg), measured for 90 days): about 0.9 ug/day
- initial rate of release [3, 5]: about 13 ug per day
- rate of release at 15 days [3, 5]: about 5 ug per day
- initial rate of release [3, 6]: about 13 ug per day
- rate of release at 15 days [3, 6]: about 5 ug per day
- elution rate ([3]; unwashed matrix (0 wash)): about 35 ug per day
- elution rate ([3]; washed for 15 minutes in 70% isopropanol): about 17 ug per day
- determined rate of release ([4]; first insert, after about sixty days, twin insert in solution): about 1.2 ug per day
- rate of release ([4]; second insert): 1.6 to 2.5 ug per day
- rate of release ([4]; third insert): 3.8 to 4 ug per day
Compound: CCNC(=O)CCC/C=C\C[C@@H]1[C@@H](/C=C/[C@@H](O)CCc2ccccc2)[C@H](O)C[C@@H]1O [bimatoprost]
- TOP (eye of a subject): 15 to 18 mm Hg
- TOP (eye of a test subject; first insert, after about sixty days, close to the control eye): about 19.5 mm Hg
- TOP (eye of a test subject; second insert): 17 to 18 mm Hg
- TOP (eye of a test subject; third insert): 14.5 to 16 mm Hg
